In ChEMBL document CHEMBL1201862, “PubChem BioAssay data set” (2004):
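Five concentrations, 48 hours, 96-well plates. GI50 marks 50% less growth.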 Activity calls are given as the source filed them. Rule as the data show it: active = GI50 up to about 1.1 µM and inactive = higher.

How the values were obtained:
Test in all cases: growth of human tumour cells (NCI), 48 h
HOP-92 = tested on: HOP-92
HT-29 = tested on: HT-29
Malme-3M = tested on: Malme-3M
SN12C = tested on: SN12C
MOLT-4 = tested on: MOLT-4
KM12 = tested on: KM12
SNB-75 = tested on: SNB-75
SK-MEL-28 = tested on: SK-MEL-28
RXF 393 = tested on: RXF 393
NCI-H522 = tested on: NCI-H522
SR = tested on: SR
786-0 = tested on: 786-0
DMS-273 = tested on: DMS-273
COLO 205 = tested on: COLO 205
SF-268 = tested on: SF-268
LOX IMVI = tested on: LOX IMVI
M14 = tested on: M14

| SMILES | GI50 (HOP-92) | GI50 (HT-29) | GI50 (Malme-3M) | GI50 (SN12C) | GI50 (MOLT-4) | GI50 (KM12) | GI50 (SNB-75) | GI50 (SK-MEL-28) | GI50 (RXF 393) | GI50 (NCI-H522) | GI50 (SR) | GI50 (786-0) | GI50 (DMS-273) | GI50 (COLO 205) | GI50 (SF-268) | GI50 (LOX IMVI) | GI50 (M14) |
| --- | --- | --- | --- | --- | --- | --- | --- | --- | --- | --- | --- | --- | --- | --- | --- | --- | --- |
| COc1ccc(/C=C/COC(C)=O)cc1OC | 86.5 µM (inactive) | > 100 µM (inactive) | > 100 µM (inactive) | > 100 µM (inactive) | > 100 µM (inactive) | > 100 µM (inactive) | > 100 µM (inactive) | > 100 µM (inactive) | > 100 µM (inactive) | > 100 µM (inactive) | > 100 µM (inactive) | > 100 µM (inactive) | > 100 µM (inactive) | > 100 µM (inactive) | > 100 µM (inactive) | – | – |
| C[N+]1(C)C/C(=C/c2ccc(F)cc2)C(=O)/C(=C\c2ccc(F)cc2)C1 | > 100 µM (inactive) | – | 42.1 µM (inactive) | 2.14 µM (inactive) | 15.4 µM (inactive) | 67.8 µM (inactive) | 53.8 µM (inactive) | 15 µM (inactive) | > 100 µM (inactive) | 16.6 µM (inactive) | – | 49.4 µM (inactive) | 30.6 µM (inactive) | 60.7 µM (inactive) | 23.3 µM (inactive) | > 100 µM (inactive) | > 100 µM (inactive) |
| O=C1CCCC(O)=C1SC1=C(O)CCCC1=O | > 100 µM (inactive) | 72.8 µM (inactive) | > 100 µM (inactive) | 74 µM (inactive) | > 100 µM (inactive) | > 100 µM (inactive) | 77.4 µM (inactive) | 69.2 µM (inactive) | > 100 µM (inactive) | > 100 µM (inactive) | – | 81.1 µM (inactive) | > 100 µM (inactive) | > 100 µM (inactive) | > 100 µM (inactive) | > 100 µM (inactive) | 56.4 µM (inactive) |
| Cn1c(=O)c2nc3sc4ccccc4c(=N)n3c2n(C)c1=O | > 100 µM (inactive) | > 100 µM (inactive) | > 100 µM (inactive) | > 100 µM (inactive) | > 100 µM (inactive) | > 100 µM (inactive) | – | > 100 µM (inactive) | > 100 µM (inactive) | > 100 µM (inactive) | > 100 µM (inactive) | > 100 µM (inactive) | > 100 µM (inactive) | > 100 µM (inactive) | > 100 µM (inactive) | > 100 µM (inactive) | – |
| N#CC(NNC(=O)c1ccccc1O)c1ccccc1O (configuration not stated) | 13.6 µM (inactive) | 41.4 µM (inactive) | 10 µM (inactive) | 5.27 µM (inactive) | 2.23 µM (inactive) | 5.82 µM (inactive) | 18.5 µM (inactive) | 10.9 µM (inactive) | 12.8 µM (inactive) | 8.87 µM (inactive) | 0.472 µM (active) | 3.55 µM (inactive) | 2.38 µM (inactive) | 33.5 µM (inactive) | 2.29 µM (inactive) | 3.78 µM (inactive) | 5.65 µM (inactive) |
| O=[N+]([O-])c1cccc(-c2oc(/C=N/c3ccccc3)c([N+](=O)[O-])c2-c2cccc([N+](=O)[O-])c2)c1 | > 100 µM (inactive) | > 100 µM (inactive) | > 100 µM (inactive) | – | > 100 µM (inactive) | > 100 µM (inactive) | > 100 µM (inactive) | > 100 µM (inactive) | > 100 µM (inactive) | > 100 µM (inactive) | – | > 100 µM (inactive) | > 100 µM (inactive) | > 100 µM (inactive) | > 100 µM (inactive) | > 100 µM (inactive) | > 100 µM (inactive) |
| Cc1ccc([S+]([O-])c2ccccc2[N+](=O)[O-])cc1 (configuration not stated) | 60 µM (inactive) | 69.3 µM (inactive) | > 100 µM (inactive) | 72.6 µM (inactive) | 41.3 µM (inactive) | 54.6 µM (inactive) | – | 42.2 µM (inactive) | > 100 µM (inactive) | 33.3 µM (inactive) | 46 µM (inactive) | > 100 µM (inactive) | 62.2 µM (inactive) | – | – | 38.5 µM (inactive) | > 100 µM (inactive) |
| CC1=C(C(=O)NCc2ccccc2)C(c2ccccc2[N+](=O)[O-])C(C(=O)NCc2ccccc2)=C(C)N1 | 20.8 µM (inactive) | 12.8 µM (inactive) | 13.7 µM (inactive) | 12 µM (inactive) | 8.93 µM (inactive) | 10.4 µM (inactive) | 13.6 µM (inactive) | 13.1 µM (inactive) | 10.6 µM (inactive) | – | 5.13 µM (inactive) | 12.8 µM (inactive) | 10.6 µM (inactive) | 18.7 µM (inactive) | 9.18 µM (inactive) | 7.24 µM (inactive) | 11.7 µM (inactive) |
| C#CCn1c(=O)[nH]c(=O)c2cccnc21 | > 100 µM (inactive) | – | > 100 µM (inactive) | > 100 µM (inactive) | > 100 µM (inactive) | > 100 µM (inactive) | > 100 µM (inactive) | > 100 µM (inactive) | > 100 µM (inactive) | > 100 µM (inactive) | > 100 µM (inactive) | > 100 µM (inactive) | > 100 µM (inactive) | > 100 µM (inactive) | > 100 µM (inactive) | > 100 µM (inactive) | > 100 µM (inactive) |
| Ic1ncnc2c1ncn2C1CCCO1 (configuration not stated) | > 100 µM (inactive) | > 100 µM (inactive) | > 100 µM (inactive) | > 100 µM (inactive) | > 100 µM (inactive) | > 100 µM (inactive) | 35.8 µM (inactive) | > 100 µM (inactive) | – | > 100 µM (inactive) | > 100 µM (inactive) | > 100 µM (inactive) | > 100 µM (inactive) | > 100 µM (inactive) | > 100 µM (inactive) | > 100 µM (inactive) | > 100 µM (inactive) |
| COc1ccc2c3ccc4c(c3n(C)c2c1)C(=O)C=CC4=O | 14.1 µM (inactive) | > 100 µM (inactive) | 30.5 µM (inactive) | 40.4 µM (inactive) | 2.86 µM (inactive) | – | > 100 µM (inactive) | 84.9 µM (inactive) | 18.4 µM (inactive) | 10.4 µM (inactive) | 2.84 µM (inactive) | 17.9 µM (inactive) | 34.7 µM (inactive) | 18.8 µM (inactive) | 44.3 µM (inactive) | – | > 100 µM (inactive) |
| CCOC(=O)C(C)(C)Oc1ccc(/C=C/C(=O)c2ccc(Cl)cc2)cc1 | – | 15.6 µM (inactive) | 18.4 µM (inactive) | 19.1 µM (inactive) | 19.6 µM (inactive) | – | 15.2 µM (inactive) | 19.4 µM (inactive) | 15.3 µM (inactive) | – | 27.3 µM (inactive) | 17.2 µM (inactive) | 16.7 µM (inactive) | 24 µM (inactive) | 19.1 µM (inactive) | 16.6 µM (inactive) | 18.4 µM (inactive) |
| CCOc1ccccc1NC(=O)CCC(=O)NN | > 100 µM (inactive) | > 100 µM (inactive) | > 100 µM (inactive) | > 100 µM (inactive) | > 100 µM (inactive) | > 100 µM (inactive) | > 100 µM (inactive) | > 100 µM (inactive) | > 100 µM (inactive) | > 100 µM (inactive) | 2.75 µM (inactive) | > 100 µM (inactive) | > 100 µM (inactive) | > 100 µM (inactive) | > 100 µM (inactive) | > 100 µM (inactive) | > 100 µM (inactive) |
| CS(=O)(=O)C1S(=O)(=O)OCCOS1(=O)=O | > 100 µM (inactive) | > 100 µM (inactive) | > 100 µM (inactive) | > 100 µM (inactive) | > 100 µM (inactive) | > 100 µM (inactive) | > 100 µM (inactive) | > 100 µM (inactive) | > 100 µM (inactive) | > 100 µM (inactive) | > 100 µM (inactive) | > 100 µM (inactive) | > 100 µM (inactive) | > 100 µM (inactive) | > 100 µM (inactive) | > 100 µM (inactive) | > 100 µM (inactive) |
| CC#CCC1CCC(OCC)=CC1=O (configuration not stated) | > 100 µM (inactive) | > 100 µM (inactive) | – | > 100 µM (inactive) | > 100 µM (inactive) | > 100 µM (inactive) | > 100 µM (inactive) | > 100 µM (inactive) | > 100 µM (inactive) | > 100 µM (inactive) | > 100 µM (inactive) | > 100 µM (inactive) | > 100 µM (inactive) | > 100 µM (inactive) | > 100 µM (inactive) | > 100 µM (inactive) | > 100 µM (inactive) |
| COc1ccc(Br)c(C(=O)N2CCc3ccccc32)c1N | > 100 µM (inactive) | 52 µM (inactive) | 66.4 µM (inactive) | 41.8 µM (inactive) | 31.3 µM (inactive) | 34.2 µM (inactive) | 26.9 µM (inactive) | 52.7 µM (inactive) | 55.2 µM (inactive) | 16.7 µM (inactive) | 20.3 µM (inactive) | 42.4 µM (inactive) | 15.7 µM (inactive) | 66.1 µM (inactive) | – | 93.1 µM (inactive) | 32.9 µM (inactive) |
| Cc1cn(C2CC(O)C(COC(=O)c3ccccc3)O2)c(=O)[nH]c1=O (configuration not stated) | > 100 µM (inactive) | > 100 µM (inactive) | > 100 µM (inactive) | > 100 µM (inactive) | > 100 µM (inactive) | > 100 µM (inactive) | – | > 100 µM (inactive) | > 100 µM (inactive) | > 100 µM (inactive) | > 100 µM (inactive) | > 100 µM (inactive) | > 100 µM (inactive) | > 100 µM (inactive) | > 10 µM (inactive) | > 100 µM (inactive) | > 100 µM (inactive) |
| CC(C)=CCCC1(C)C=Cc2c(c(C)cc3c2[nH]c2cc(O)ccc23)O1 (configuration not stated) | > 25 µM (inactive) | > 25 µM (inactive) | > 25 µM (inactive) | > 25 µM (inactive) | > 25 µM (inactive) | > 25 µM (inactive) | – | > 25 µM (inactive) | > 25 µM (inactive) | 6.82 µM (inactive) | 24 µM (inactive) | > 25 µM (inactive) | > 25 µM (inactive) | > 25 µM (inactive) | > 25 µM (inactive) | > 25 µM (inactive) | > 25 µM (inactive) |
